# In patent US7879884B2, “Aryl pyridyl sulfonamide derivatives, their manufacture and use as pharmaceutical agents” (Hoffmann-La Roche Inc., priority 2007, dated 2011):
# Tested on: HCT 116 cells
# Assay: CellTiter-Glo Luminescent Cell Viability Assay in HCT 116 cells
# Assay type: cell-based
# Details: HCT 116 human colon carcinoma cells, 5 days (120 h) incubation, CellTiter-Glo luminescence, triplicate
# Excerpt: CellTiter-Glo™ Assay in HCT 116 Cells
# The CellTiter-Glo™ Luminescent Cell Viability Assay (Promega) is a homogeneous method of determining the number of viable cells in culture based on quantitation of the ATP present, which signals the presence of metabolically active cells.
# HCT 116 cells (human colon carcinoma, ATCC-No. CCI-247) were cultivated in RPMI 1640 medium with GlutaMAX™ I (Invitrogen, Cat-No. 61870-010), 5% Fetal Calf Serum (FCS, Sigma Cat-No. F4135 (FBS)); 100 Units/ml penicillin/[…] streptomycin (=Pen/Strep from Invitrogen Cat. No. 15140).
# For the assay the cells were seeded in 384 well plates, 1000 cells per well, in the same medium. The next day the test compounds were added in various concentrations ranging from 30 μM to 0.0015 μM (10 concentrations, 1:3 diluted). After 5 days the CellTiter-Glo™ assay was done according to the instructions of the manufacturer (CellTiter-Glo™ Luminescent Cell Viability Assay, from Promega). In brief: the cell-plate was equilibrated to room temperature for approximately 30 minutes and than the CellTiter-Glo™ reagent was added. The contents were carefully mixed for 15 minutes to induce cell lysis. After 45 minutes the luminescent signal was measured in Victor 2, (scanning multiwell spectrophotometer, Wallac).
# • Medium: RPMI 1640 with GlutaMAX™ I (Invitrogen, Cat-Nr. 61870), 5% FCS (Sigma Cat.-No. F4135), Pen/Strep (Invitrogen, Cat No. 15140). • HCT116 (ATCC-No. CCI-247): 1000 cells in 60 μl per well of 384 well plate (Greiner 781098, μClear-plate white) • After seeding incubate plates 24 h at 37° C., 5% CO2 2nd. day: Induction (Treatment with Compounds, 10 Concentrations):
# In order to achieve a final concentration of 30 μM as highest concentration 3.5 μl of 10 mM compound stock solution were added directly to 163 μl media. Then step e) of the dilution procedure described below, was followed.
compound,measurement,value
"CSc1ccccc1-c1ccc(S(=O)(=O)NC(=O)c2ccc(Cl)cc2Cl)cn1 [Example 1-7, 6-(2-Methylsulfanyl-phenyl)-pyridine-3-sulfonic acid 2,4-dichloro-benzoylamide]",IC50,500 to 7500 nM
"COc1cccc(OC)c1-c1ccc(S(=O)(=O)NC(=O)c2ccc(F)cc2C(F)(F)F)cn1 [Example 1-3, 6-(2,6-Dimethoxy-phenyl)-pyridine-3-sulfonic acid 4-fluoro-2-trifluoromethyl-benzoylamide]",IC50,500 to 7500 nM
"COc1ccccc1-c1ncc(S(=O)(=O)NC(=O)c2ccc(Cl)cc2Cl)cc1C [Example 1-12, 6-(2-Methoxy-phenyl)-5-methyl-pyridine-3-sulfonic acid 2,4-dichloro-benzoylamide]",IC50,3980 nM
"COc1cc(Cl)ccc1C(=O)NS(=O)(=O)c1ccc(-c2c(OC)cccc2OC)nc1 [Example 1-4, 6-(2,6-Dimethoxy-phenyl)-pyridine-3-sulfonic acid 4-chloro-2-methoxy-benzoylamide]",IC50,500 to 7500 nM
"Cc1cc(S(=O)(=O)NC(=O)c2ccc(F)cc2C(F)(F)F)cnc1-c1ccccc1Cl [Example 1-14, 6-(2-Chloro-phenyl)-5-methyl-pyridine-3-sulfonic acid 4-fluoro-2-trifluoromethyl-benzoylamide]",IC50,500 to 7500 nM
"COc1cc(Cl)ccc1C(=O)NS(=O)(=O)c1ccc(-c2c(C)cc(C)cc2C)nc1 [Example 1-5, 6-(2,4,6-Trimethyl-phenyl)-pyridine-3-sulfonic acid 4-chloro-2-methoxy-benzoylamide]",IC50,500 to 7500 nM
"COc1cccc(OC)c1-c1ccc(S(=O)(=O)NC(=O)c2ccc(Cl)cc2Cl)cn1 [Example 1-1, 6-(2,6-Dimethoxy-phenyl)-pyridine-3-sulfonic acid 2,4-dichloro-benzoylamide]",IC50,1430 nM
"COc1cccc(F)c1-c1ccc(S(=O)(=O)NC(=O)c2ccc(Cl)cc2Cl)cn1 [Example 1-10, 6-(2-Fluoro-6-methoxy-phenyl)-pyridine-3-sulfonic acid 2,4-dichloro-benzoylamide]",IC50,500 to 7500 nM
"Cc1cc(S(=O)(=O)NC(=O)c2ccc(F)cc2Cl)cnc1-c1ccccc1Cl [Example 1-15, 6-(2-Chloro-phenyl)-5-methyl-pyridine-3-sulfonic acid 2-chloro-4-fluoro-benzoylamide]",IC50,500 to 7500 nM
"O=C(NS(=O)(=O)c1ccc(-c2ccc(C(F)(F)F)cc2C(F)(F)F)nc1)c1ccc(Cl)cc1Cl [Example 1-9, 6-(2,4-Bis-trifluoromethyl-phenyl)-pyridine-3-sulfonic acid 2,4-dichloro-benzoylamide]",IC50,500 to 7500 nM
"COc1cc(Cl)ccc1C(=O)NS(=O)(=O)c1cnc(-c2ccccc2Cl)c(C)c1 [Example 1-16, 6-(2-Chloro-phenyl)-5-methyl-pyridine-3-sulfonic acid 4-chloro-2-methoxy-benzoylamide]",IC50,500 to 7500 nM
"CS(=O)(=O)c1ccccc1-c1ccc(S(=O)(=O)NC(=O)c2ccc(Cl)cc2Cl)cn1 [Example 1-8, 6-(2-Methanesulfonyl-phenyl)-pyridine-3-sulfonic acid 2,4-dichloro-benzoylamide]",IC50,2940 nM
"COc1ccccc1-c1ncc(S(=O)(=O)NC(=O)c2ccc(F)cc2C(F)(F)F)cc1C [Example 1-13, 6-(2-Methoxy-phenyl)-5-methyl-pyridine-3-sulfonic acid 4-fluoro-2-trifluoromethyl-benzoylamide]",IC50,500 to 7500 nM
"COc1cc(Cl)ccc1C(=O)NS(=O)(=O)c1ccc(-c2c(C)cccc2C)nc1 [Example 1-6, 6-(2,6-Dimethyl-phenyl)-pyridine-3-sulfonic acid 4-chloro-2-methoxy-benzoylamide]",IC50,500 to 7500 nM
"COc1cc(Cl)ccc1C(=O)NS(=O)(=O)c1ccc(-c2ccccc2NS(C)(=O)=O)nc1 [Example 1-11, 6-(2-Methanesulfonylamino-phenyl)-pyridine-3-sulfonic acid 4-chloro-2-methoxy-benzoylamide]",IC50,500 to 7500 nM
"COc1cccc(OC)c1-c1ccc(S(=O)(=O)NC(=O)c2ccc(F)cc2Cl)cn1 [Example 1-2, 6-(2,6-Dimethoxy-phenyl)-pyridine-3-sulfonic acid 2-chloro-4-fluoro-benzoylamide]",IC50,500 to 7500 nM
